# According to US9486457B2, “Use of cinnabarinic acid as a modulator of immune responses in autoimmune disorders” (The Regents of the University of California, priority 2010, dated 2016):
# “Also recorded” adds a separate entry of the source.
# What was measured:
# human naïve CD4+ T cells = assay: IL-22 induction in cultured human naïve CD4+ T cells stimulated with anti-CD3/anti-CD28 under Th17 polarizing conditions; assay type: cell-based; details: CA 25 μM in FIG. 8D
# Description: This is AHR dependent as inclusion of an AHR antagonist fully abrogated effect.
# FIG. 8: CA is an endogenous AhR agonist generated by oxidative dimerization of 3-HAA. (A) An alternative pathway of 3-HAA metabolism leads to the generation of CA either by non-enzymatic (oxidation) or enzymatic (laccase, ceruloplasmin) processes. CA is structurally similar to the synthetic AhR ligand TCDD. […] Data are representative of three similar experiments.
# [1] = tested on: naïve (CD45RA+CCR7+CD95−CD25−) CD4+ T cells; assay: Foxp3 induction in stimulated naïve CD4+ T cells; assay type: cell-based, human
# Description: FIG. 9: The synthetic 3-HAA analogue 3,4 DAA (Tranilast) is an AhR antagonist and promotes the induction of Foxp3 by stimulated CD4+ T cells. (A) 3,4 DAA shares some structural similarities to 3-HAA (highlighted region).
# Therefore we asked whether T cells treated with 3,4 DAA might be prompted to differentiate into Treg cells through upregulation of the transcription factor Foxp3 (26).
# AHR = biological target: T1, AHR (Mus musculus, UniProt P30561); assay: AHR-responsive (dioxin responsive element) GFP reporter assay in H1G1 mouse hepatoma cells; assay type: cell-based; details: for AHR agonist activity (activation of AHR-responsive reporter): agonist mode; for AHR antagonist activity (block of AHR activation by TCDD): antagonist mode, co-treatment with TCDD, H1G1 cells
# T1 construct: murine hepatoma cell line stably transfected with an AhR-responsive (AhR-eGFP) reporter construct; endogenous in cells
# T1 sequence (P30561 10-848): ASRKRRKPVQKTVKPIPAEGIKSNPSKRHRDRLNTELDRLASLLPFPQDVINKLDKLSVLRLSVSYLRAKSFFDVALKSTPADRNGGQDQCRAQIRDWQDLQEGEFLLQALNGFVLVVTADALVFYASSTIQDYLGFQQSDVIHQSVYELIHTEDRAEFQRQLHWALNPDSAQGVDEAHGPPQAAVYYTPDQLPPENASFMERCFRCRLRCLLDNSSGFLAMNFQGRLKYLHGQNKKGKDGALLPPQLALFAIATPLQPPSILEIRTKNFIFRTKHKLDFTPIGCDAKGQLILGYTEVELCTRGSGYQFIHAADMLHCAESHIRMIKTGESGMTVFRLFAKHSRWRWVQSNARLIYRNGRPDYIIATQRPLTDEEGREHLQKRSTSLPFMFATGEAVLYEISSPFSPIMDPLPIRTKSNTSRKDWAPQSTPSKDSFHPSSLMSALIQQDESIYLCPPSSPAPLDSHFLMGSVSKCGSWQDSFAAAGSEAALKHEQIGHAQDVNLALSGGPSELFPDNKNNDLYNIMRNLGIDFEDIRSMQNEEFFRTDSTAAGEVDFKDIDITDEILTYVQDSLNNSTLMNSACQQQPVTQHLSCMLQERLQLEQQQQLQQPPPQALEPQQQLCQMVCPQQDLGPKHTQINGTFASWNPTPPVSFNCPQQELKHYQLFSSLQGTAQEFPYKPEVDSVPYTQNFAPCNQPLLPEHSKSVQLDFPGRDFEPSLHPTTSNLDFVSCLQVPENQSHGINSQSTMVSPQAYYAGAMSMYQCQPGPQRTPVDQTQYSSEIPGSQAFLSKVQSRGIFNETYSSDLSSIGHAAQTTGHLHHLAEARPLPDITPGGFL
# Description: (§1) We performed a precursory screen of all tryptophan metabolites including both 3-HKA and 3-HAA to bind to and act as agonists or antagonists of the AHR using two separate assays. First we examined the ability of 3-HKyn, 3-HAA, and PA to displace TCDD binding to the human AHR protein in vitro (20). […] We also measured AHR activation using a mouse hepatoma cell line (H1G1) that stably expresses a green fluorescent protein (GFP) reporter construct downstream of a series of dioxin responsive elements (FIG. 7A) (21).
# human AHR protein = biological target: T2, human AHR protein (Homo sapiens, UniProt P35869); assay: Displacement of TCDD binding to in vitro translated human AHR protein; details: cell-free
# T2 sequence (P35869 11-848): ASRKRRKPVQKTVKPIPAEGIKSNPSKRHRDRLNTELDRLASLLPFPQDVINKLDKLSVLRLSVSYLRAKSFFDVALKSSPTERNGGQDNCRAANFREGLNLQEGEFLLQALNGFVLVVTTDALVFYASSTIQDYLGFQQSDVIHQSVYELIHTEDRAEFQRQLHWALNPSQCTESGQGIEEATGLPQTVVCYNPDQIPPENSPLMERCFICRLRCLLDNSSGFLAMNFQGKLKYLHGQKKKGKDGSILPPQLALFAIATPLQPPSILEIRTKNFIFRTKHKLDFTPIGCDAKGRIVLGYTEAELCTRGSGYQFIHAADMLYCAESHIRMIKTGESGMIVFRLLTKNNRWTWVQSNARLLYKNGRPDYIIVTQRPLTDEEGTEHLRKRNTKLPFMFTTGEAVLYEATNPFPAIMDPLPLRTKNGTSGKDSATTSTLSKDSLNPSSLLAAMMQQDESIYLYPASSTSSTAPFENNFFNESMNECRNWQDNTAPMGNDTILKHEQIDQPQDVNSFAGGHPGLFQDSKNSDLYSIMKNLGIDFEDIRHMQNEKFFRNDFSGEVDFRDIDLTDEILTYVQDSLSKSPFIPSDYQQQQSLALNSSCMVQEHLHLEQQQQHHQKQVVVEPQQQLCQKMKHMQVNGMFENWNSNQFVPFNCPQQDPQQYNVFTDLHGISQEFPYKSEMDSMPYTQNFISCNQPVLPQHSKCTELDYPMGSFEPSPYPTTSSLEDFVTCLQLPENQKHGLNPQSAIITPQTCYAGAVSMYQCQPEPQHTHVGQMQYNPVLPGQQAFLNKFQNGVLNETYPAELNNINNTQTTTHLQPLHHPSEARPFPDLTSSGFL
# Description: as §1
# [2] = tested on: stimulated human CD4+ T cells; assay: IL-22 expression by CD4+ T cells in stimulated human PBMCs / T cells; assay type: cell-based; details: for IL-22 expression by CD4+ T cells (Th22 differentiation): stimulated human PBMCs / T cells, 100 μM for 3-HKyn and 3-HAA in FIG. 6A
# Description: FIG. 6: 3-HKyn and 3-HAA promote IL-22 expression by stimulated human CD4+ T cells. […] (C) IL-22 induction by 3-HAA is blocked by inhibition of the AhR pathway.
# This is highlighted by the observation that AHR−/− mice retain the ability to generate some Th17 cells, but are incapable of generating cells that express IL-22 (16-18). […] To screen for the ability of tryptophan metabolites generated downstream of IDO to activate the AHR, we stimulated human T cells in vitro in the presence of different tryptophan metabolites (3-Hydroxykynurenine (3-HKA), 3-Hydroxyanthranilic Acid (3-HAA), Picolinic Acid (PA), and Quinolinic Acid (QA)) to assess whether any promoted the expansion of CD4+ T cells secreting IL-22. […] To determine whether the induction of IL-22 within this population was dependent upon AHR activation, we next stimulated human T cells in the presence or absence of a potent AHR antagonist (CH-223191) and monitored the induction of IL-22.
# [3] = tested on: stimulated human CD4+ T cells; details: literature (ref 19); cited from earlier work
# [4] = tested on: experimental allergic encephalomyelitis (EAE); details: literature reports (refs 15, 25 as cited in text); cited from earlier work
smiles,measurement,setting,value
"Nc1c(O)cccc1C(=O)O [3-HAA, 3-Hydroxyanthranilic Acid]",IL-22 induction,human naïve CD4+ T cells,only had minimal effects
same,Foxp3 expression (frequency of CD4+Foxp3+ T cells),[1]; stimulated naïve CD4+ T cells in vitro,promotes Foxp3 upregulation but to a lesser extent
same,AHR agonist activity (activation of AHR-responsive reporter),AHR,"modest increase in AHR activity using 3-HAA as an agonist, this failed to reach significance; also recorded: minimal activation of the AhR; also recorded: no activity in short-term assays"
same,displacement / inhibition of TCDD binding to human AHR,human AHR protein,modest binding of 3-HAA only at very high concentrations
same,expansion of Th22 cells,[2]; different donors,≥ 2 fold
same,IL-22 expression by CD4+ T cells (Th22 differentiation),[2],able to promote the differentiation of Th22 cells; also recorded: leads to the expansion of a population of cells expression the cytokine IL-22; also recorded: promotes IL-22 expression in dose-dependent manner
"Nc1c(O)cccc1C(=O)CC(N)C(=O)O (stereo not shown) [3-HKyn, 3-Hydroxykynurenine]",AHR agonist activity (activation of AHR-responsive reporter),AHR,"none of the other metabolites (3-HKyn, PA, QA) were found to have any activity as agonists or antagonists"
same,AHR antagonist activity (block of AHR activation by TCDD),AHR,"none of the other metabolites (3-HKyn, PA, QA) were found to have any activity as agonists or antagonists"
same,displacement / inhibition of TCDD binding to human AHR,human AHR protein,unable to measure any significant displacement
same,IL-22 expression by CD4+ T cells (Th22 differentiation),[2],leads to the expansion of a population of cells expression the cytokine IL-22
same,IL-22 expression by CD4+ T cells (Th22 differentiation),[2]; listed as 3-HKA,able to promote the differentiation of Th22 cells
"Nc1c(C(=O)O)ccc(F)c1O [4-F-3-HAA, 4-fluoro-3-hydroxythranilic acid]",effect of HAAO inhibition on the ability of 3-HAA to induce IL-22,[2]; in the presence of different concentrations of 3-HAA,stark increase in the ability of 3-HAA to induce IL-22
Cc1ccccc1N=Nc1ccc(NC(=O)c2ccnn2C)c(C)c1 [CH-223191],AHR antagonist activity (block of AHR activation by TCDD),AHR,potent antagonist
same,AHR antagonist activity (block of AHR activation by TCDD),AHR; listed as CH223191,positive control
same,block of IL-22 induction by 3-HAA,[2]; AHR antagonist added with 3-HAA,significantly abolish IL-22 induction by 3-HAA
"O=Cc1c2c(cc3c1=Nc1ccccc1-3)=Nc1ccccc1-2 [FICZ, 6-formylindolo[3,2-b]carbazole]","frequency of CD4+ T cells that produce IL-22 (Th22), as previously reported",[3],promoted a significant increase in the frequency of CD4+ T cells that produced IL-22
same,effect on EAE as previously reported,[4],increased disease severity
"O=C(O)c1ccccn1 [PA, Picolinic Acid]",AHR agonist activity (activation of AHR-responsive reporter),AHR,"none of the other metabolites (3-HKyn, PA, QA) were found to have any activity as agonists or antagonists"
same,AHR antagonist activity (block of AHR activation by TCDD),AHR,"none of the other metabolites (3-HKyn, PA, QA) were found to have any activity as agonists or antagonists"
same,displacement / inhibition of TCDD binding to human AHR,human AHR protein,unable to measure any significant displacement
"O=C(O)c1cccnc1C(=O)O [QA, Quinolinic Acid]",AHR agonist activity (activation of AHR-responsive reporter),AHR,"none of the other metabolites (3-HKyn, PA, QA) were found to have any activity as agonists or antagonists"
same,AHR antagonist activity (block of AHR activation by TCDD),AHR,"none of the other metabolites (3-HKyn, PA, QA) were found to have any activity as agonists or antagonists"
NC(=O)c1ccc(-c2nc(-c3ccc4c(c3)OCO4)c(-c3ccccn3)[nH]2)cc1 [SB-431542],"reversal of Foxp3 upregulation by 3,4 DAA and 3-HAA",[1]; TGFβ signaling inhibitor added,"reversed the ability of 3,4 DAA and 3-HAA to upregulate Foxp3"
"Clc1cc2c(cc1Cl)Oc1cc(Cl)c(Cl)cc1O2 [TCDD, 2,3,7,8-tetrachlorodibenzodioxin]",effect on EAE as previously reported,[4],protective
"NCCc1c[nH]c2ccccc12 [Tryptamine, tryptamine]",AHR agonist activity (activation of AHR-responsive reporter),AHR,positive control
